PMC10615177 (ACS infectious diseases, 2023)
Values after ≈ are worked out from the molar mass of the structure shown. Read-outs that look alike come from different tables or passages of the source.

Assays:
Bacillus subtilis = assay: B. subtilis growth inhibition; type: cell-based; settings: Bacillus subtilis, read-out: Bs IC50
E. coli = E. coli growth inhibition; type: cell-based, Escherichia coli; settings: for IC50: read-out: Ec IC50
[1] = test system: L. donovani promastigotes; assay: L. donovani promastigote growth inhibition; type: cell-based, Leishmania donovani; settings: read-out: L. donovani IC50
[2] = dog, in vivo; cited from earlier work
M. tuberculosis Erdman = M. tuberculosis Erdman growth inhibition; type: cell-based, Mycobacterium tuberculosis
[3] = [14C-SQ109], mice; cited from earlier work
[4] = test system: M. abscessus strain PIPD1^R1 (A309P mutation in MmpL3)
M. tuberculosis H37Rv = M. tuberculosis H37Rv growth inhibition; type: cell-based, Mycobacterium tuberculosis
in vitro [5] = settings: human
[6] = DSC of DMPC bilayers with inhibitor; type: physicochemical; settings: for Tm (main transition) / ΔH / ΔT1/2: 10 wt % inhibitor, PBS pH 7.4, heating; for Decrease of Tm compared to DMPC without inhibitor: heating
M. tuberculosis HN878 = M. tuberculosis HN878 growth inhibition; type: cell-based, Mycobacterium tuberculosis; settings: for Mtb HN878 MIC: visual inspection
[7] = test system: T. cruzi Dm28c intracellular amastigotes; assay: T. cruzi intracellular amastigote inhibition; type: cell-based, Trypanosoma cruzi; settings: read-out: T. cruzi IC50 (PAR)
in vitro [8] = settings: human; remark: listed apart in the source
[9] = DSC of DSPG bilayers with inhibitor; type: physicochemical; settings: for Tm (main transition) / ΔH / ΔT1/2: 10 wt % inhibitor, PBS pH 7.4, heating; for Broadening of main transition peak ΔΤ1/2 compared to pure DSPG / Decrease of Tm compared to DSPG alone: heating
[10] = test system: Plasmodium falciparum asexual blood stages; assay: P. falciparum asexual blood stage; type: cell-based
[11] = test system: T. brucei bloodstream forms; assay: T. brucei bloodstream form growth inhibition; type: cell-based, Trypanosoma brucei; settings: read-out: T. brucei IC50
[12] = test system: L. mexicana promastigotes; assay: L. mexicana promastigote growth inhibition; type: cell-based, Leishmania mexicana
[13] = biological target: M. tuberculosis MmpL3 (MtMmpL3) (Mycobacterium tuberculosis, UniProt P9WJV5); assay: Surface plasmon resonance binding to MmpL3; settings: for koff: 1:1 Langmuir binding model
M. tuberculosis MmpL3 (MtMmpL3), sequence (P9WJV5 whole entry): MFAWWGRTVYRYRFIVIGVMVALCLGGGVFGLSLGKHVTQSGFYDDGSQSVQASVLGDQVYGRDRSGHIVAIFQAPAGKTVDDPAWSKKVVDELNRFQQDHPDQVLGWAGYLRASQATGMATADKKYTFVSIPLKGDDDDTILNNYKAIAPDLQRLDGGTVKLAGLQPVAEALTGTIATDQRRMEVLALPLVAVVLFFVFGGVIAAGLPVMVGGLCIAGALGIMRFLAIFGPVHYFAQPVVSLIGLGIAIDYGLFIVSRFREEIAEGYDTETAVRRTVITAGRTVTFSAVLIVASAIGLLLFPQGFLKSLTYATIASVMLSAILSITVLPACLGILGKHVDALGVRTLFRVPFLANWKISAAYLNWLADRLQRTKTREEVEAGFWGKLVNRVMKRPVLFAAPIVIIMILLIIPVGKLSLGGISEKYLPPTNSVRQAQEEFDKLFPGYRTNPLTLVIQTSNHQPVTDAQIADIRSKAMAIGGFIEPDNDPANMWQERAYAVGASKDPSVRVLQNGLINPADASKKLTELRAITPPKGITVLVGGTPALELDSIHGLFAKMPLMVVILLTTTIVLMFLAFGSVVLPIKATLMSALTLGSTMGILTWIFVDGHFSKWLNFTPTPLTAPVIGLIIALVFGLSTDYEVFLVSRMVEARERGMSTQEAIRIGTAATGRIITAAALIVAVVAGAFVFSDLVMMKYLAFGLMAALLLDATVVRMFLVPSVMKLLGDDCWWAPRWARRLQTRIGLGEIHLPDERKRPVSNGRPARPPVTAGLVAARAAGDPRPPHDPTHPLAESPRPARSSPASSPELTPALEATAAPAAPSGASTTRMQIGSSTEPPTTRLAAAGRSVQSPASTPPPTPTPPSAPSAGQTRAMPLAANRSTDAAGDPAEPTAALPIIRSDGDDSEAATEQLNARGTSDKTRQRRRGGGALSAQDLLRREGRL

M. smegmatis = M. smegmatis cell growth inhibition; type: cell-based, Mycobacterium smegmatis
[14] = rat, in vivo; cited from earlier work
[15] = test system: M. abscessus rough variant; assay: microbe, parasite or virus in culture; type: cell-based
[16] = test system: T. cruzi Dm28c epimastigotes; assay: T. cruzi epimastigote growth inhibition; type: cell-based, Trypanosoma cruzi; settings: read-out: T. cruzi IC50 (EPI)
[17] = test system: M. abscessus smooth variant; assay: microbe, parasite or virus in culture; type: cell-based; settings: for MIC: Mycobacteroides abscessus
[18] = Rat liver microsome stability; settings: rat liver microsomes
[19] = Human liver microsome stability
[20] = Mice liver microsome stability; settings: mice microsomes
U2OS host cells = assay: U2OS host cell growth inhibition; settings: read-out: T. cruzi CC50 (U20S)
[21] = test system: HepG2 (human hepatocellular carcinoma) cells; assay: HepG2 cell line viability; settings: 20 μM
[22] = test system: M. abscessus strain PIPD1^R1 (A309P mutation in MmpL3); settings: cited from earlier work
[23] = read-out: PfABS IC50 (μM ± S.E.), asexual blood stages
[24] = read-out: L. mexicana IC50, promastigotes
[25] = read-out: Mtb HN878 IC50, dose-response curves
[26] = intracellular amastigotes in U2OS host cells
[27] = read-out: KD, 1:1 model, 1:1 binding model, from ratio of rate constants
[28] = read-out: KD, 2-state, two-state model, from rate constants
[29] = read-out: Ms IC50, M. smegmatis

## CC(C)=CCC/C(C)=C/CNCCNC1C2CC3CC(C2)CC1C3 (stereo not shown) [Compound 8a, N-geranyl-N΄-(2-adamantyl)ethane-1,2-diamine, reference compound]
Bacillus subtilis
  IC50: 16000 nM
E. coli; Escherichia coli
  IC50: 15000 nM
[1]; Leishmania donovani
  IC50: 2000 ± 100 nM
[2]
  half-life: > 5 h
M. tuberculosis Erdman; Mycobacterium tuberculosis, ERDMAN, read-out: Mtb Erdman MIC
  MIC: 1.8 µM (≈ 0.595 µg/mL)
[3]
  half-life: 5 h
[4]
  Resistance of A309P MmpL3 mutant: not resistant
M. tuberculosis H37Rv; Mycobacterium tuberculosis, H37RV, read-out: Mtb H37Rv MIC
  MIC: 1.8 µM (≈ 0.595 µg/mL)
In vitro [5]
  CC50: 4100 ± 200 nM
[6]
  Tm (main transition): 20.6 °C
  ΔH: 5.57 kcal/mol
  ΔT1/2: 2.6 °C
  Decrease of Tm compared to DMPC without inhibitor: 3–4 °C
M. tuberculosis HN878; Mycobacterium tuberculosis, HN878, read-out: MIC against M. tuberculosis
  MIC: 0.3 to 1 µM (≈ 0.0992 to 0.331 µg/mL)
M. tuberculosis HN878; Mycobacterium tuberculosis, HN878, read-out: Mtb HN878 IC50, dose-response curves
  IC50: 270 ± 20 nM
M. tuberculosis HN878; Mycobacterium tuberculosis, HN878, read-out: Mtb HN878 MIC
  MIC: 0.4 µM (≈ 0.132 µg/mL)
[7]; Trypanosoma cruzi, U2OS
  IC50: 740 ± 40 nM
In vitro [8]
  viability at 20 µM: 97%
[9]
  Tm (main transition): 50.4 °C
  ΔH: 12.9 kcal/mol
  ΔT1/2: 2.1 °C
  Broadening of main transition peak ΔΤ1/2 compared to pure DSPG: 0.2–1.6 °C
  Decrease of Tm compared to DSPG alone: 3–4 °C
[10]; Plasmodium falciparum, read-out: PfABS IC50 (μM ± S.E.), asexual blood stages
  IC50: 1.6 µM
[10]; [23]
  IC50: 1.58 ± 0.2 µM
[11]; Trypanosoma brucei
  IC50: 910 ± 30 nM
[12]; Leishmania mexicana, read-out: L. mexicana IC50, promastigotes
  IC50: 500 nM
[12]; [24]
  IC50: 730 ± 200 nM
[13]; two-state model
  ka1: 429.8 M⁻¹ s⁻¹
  ka2: 0.005315 s⁻¹
  kd1: 1.098 s⁻¹
  kd2: 0.02222 s⁻¹
M. smegmatis; Mycolicibacterium smegmatis, read-out: Ms IC50, M. smegmatis
  IC50: ~2400 nM
[14]
  half-life: > 5 h
[15]; Mycobacteroides abscessus, read-out: Ma(R) MIC
  MIC: 22 µM (≈ 7.27 µg/mL)
[16]; Trypanosoma cruzi
  IC50: 6800 ± 2000 nM
[17]; read-out: MIC against M. abscessus
  MIC: 22 to 44 µM (≈ 7.27 to 14.5 µg/mL)
[17]; read-out: Ma(S) MIC
  MIC: 44 µM (≈ 14.5 µg/mL)

## CC(C)=CCCC(C)=CCNCCNC1(C)C2CC3CC(C2)CC1C3 (stereo not shown) [Compound 8b, N-(3,7-dimethylocta-2,6-dien-1-yl)-N´-(2-methyl-2-adamantanyl)ethane-1,2-diamine]
E. coli
  IC50: 25000 nM
[1]; promastigotes
  IC50: 2000 ± 1000 nM
[18]
  Intrinsic clearance rate (CLint) relative to SQ109: about twice as large
M. tuberculosis Erdman
  Mtb Erdman MIC: 3.5 µM
M. tuberculosis H37Rv
  Mtb H37Rv MIC: 3.5 µM
[6]
  Tm (main transition): 17.9 °C
  ΔH: 6.12 kcal/mol
  ΔT1/2: 2.2 °C
  Decrease of Tm compared to DMPC without inhibitor: ca. 5.6 °C
M. tuberculosis HN878
  IC50 higher than SQ109, MtHN878: ~ 3 fold
  Mtb HN878 MIC: 0.8 µM
M. tuberculosis HN878; MtbHN878, MtErdman and MtH37Rv
  Less activity than SQ109 against M. tuberculosis: 2–4 fold
M. tuberculosis HN878; [25]
  IC50: 860 ± 60 nM
[19]; human liver microsomes
  Intrinsic clearance rate (CLint) relative to SQ109: about twice as large
[19]; human, mice and rat liver microsomes
  Stability relative to SQ109 (% remanent at 60 minutes): 2–4 x
[7]; [26]
  IC50: 770 ± 200 nM
[9]
  Tm (main transition): 50.5 °C
  ΔH: 12.7 kcal/mol
  ΔT1/2: 2.0 °C
  Broadening of main transition peak ΔΤ1/2 compared to pure DSPG: 0.2–1.6 °C
  Decrease of Tm compared to DSPG alone: 3–4 °C
[20]
  Intrinsic clearance rate (CLint) relative to SQ109: essentially the same
[10]; [23]
  IC50: 0.66 ± 0.18 µM
[11]; bloodstream forms
  IC50: 2100 ± 20 nM
[12]; [24]
  IC50: 430 ± 80 nM
[13]
  koff: 0.6882 s⁻¹
[13]; [27]
  Kd: 188000 nM
[13]; [28]
  Kd: 248000 nM
[13]; two-state model
  ka1: 4958 M⁻¹ s⁻¹
  ka2: 0.01084 s⁻¹
  kd1: 1.613 s⁻¹
  kd2: 0.03486 s⁻¹
U2OS host cells
  CC50: 2800 ± 700 nM
M. smegmatis; [29]
  IC50: 4400 ± 500 nM
[15]
  Ma(R) MIC: 22 µM
[21]
  HepG2 % viability @ 20 μM: 100%
[16]; epimastigotes
  IC50: 3500 ± 1000 nM
[17]
  Ma(S) MIC: 43 µM

## CC(C)=CCCC(C)=CCNCCNC1(c2ccccc2)C2CC3CC(C2)CC1C3 (stereo not shown) [Compound 8h, N-(3,7-dimethylocta-2,6-dien-1-yl)-N´-(2-phenyl-adamantan-2-yl)ethane-1,2-diamine]
E. coli
  Ec IC50: No inhibition
[1]; promastigotes
  IC50: 1400 ± 1000 nM
[18]
  Intrinsic clearance rate (CLint) relative to SQ109: about twice as large
  Metabolism relative to SQ109: more rapidly metabolized
M. tuberculosis Erdman
  Mtb Erdman MIC: 13 µM
M. tuberculosis H37Rv
  Mtb H37Rv MIC: 13 µM
[6]
  Tm (main transition): 14.7 °C
  ΔH: 7.12 kcal/mol
  ΔT1/2: 2.7 °C
  Decrease of Tm compared to DMPC without inhibitor: ~8.8 °C
M. tuberculosis HN878; [25]
  IC50: 2300 ± 200 nM
M. tuberculosis HN878
  Mtb HN878 MIC: 1.6 µM
[19]; human liver microsomes
  Intrinsic clearance rate (CLint) relative to SQ109: about twice as large
  Metabolism relative to SQ109: more rapidly metabolized
[7]; [26]
  IC50: 600 ± 40 nM
[9]
  Tm (main transition): 48.6 °C
  ΔH: 13.2 kcal/mol
  ΔT1/2: 5.3 °C
  Broadening of main transition peak ΔΤ1/2 compared to pure DSPG: 4.4 °C
  Decrease of Tm compared to DSPG alone: ~ 5 °C
[20]
  % remanent at 60 minutes relative to SQ109: same % remanent as SQ109 (8a)
  Intrinsic clearance rate (CLint) relative to SQ109: essentially the same
[10]; [23]
  IC50: 0.42 ± 0.09 µM
[11]; bloodstream forms
  IC50: 1300 ± 300 nM
[13]
  koff: 0.465 s⁻¹
[13]; [27]
  Kd: 115000 nM
[13]; [28]
  Kd: 136000 nM
[13]; two-state model
  ka1: 25900 M⁻¹ s⁻¹
  ka2: 0.00526 s⁻¹
  kd1: 4.085 s⁻¹
  kd2: 0.03247 s⁻¹
U2OS host cells
  CC50: 3500 ± 1000 nM
M. smegmatis; [29]
  IC50: 5800 nM
[15]
  Ma(R) MIC: 6 µM
[21]
  HepG2 % viability @ 20 μM: 100%
[16]; epimastigotes
  IC50: 7300 ± 2000 nM
[17]
  Ma(S) MIC: 12 µM

## Cc1ccccc1CN1CCC(O)(c2ccc(Cl)c(C(F)(F)F)c2)CC1 [PIPD1]
[22]; MmpL3 inhibitor resistance
  Resistance (fold): 32–64 x
[22]
  Resistance of strain PIPD1^R1: very high resistance
